Data from patent US11987586B1 (TAKEDA PHARMACEUTICAL COMPANY LIMITED, priority 2022, dated 2024).

Target: T1, human OX2 receptor (Homo sapiens, UniProt O43614)
T1 construct: expressed in transfected cells
T1 sequence (O43614 1-444): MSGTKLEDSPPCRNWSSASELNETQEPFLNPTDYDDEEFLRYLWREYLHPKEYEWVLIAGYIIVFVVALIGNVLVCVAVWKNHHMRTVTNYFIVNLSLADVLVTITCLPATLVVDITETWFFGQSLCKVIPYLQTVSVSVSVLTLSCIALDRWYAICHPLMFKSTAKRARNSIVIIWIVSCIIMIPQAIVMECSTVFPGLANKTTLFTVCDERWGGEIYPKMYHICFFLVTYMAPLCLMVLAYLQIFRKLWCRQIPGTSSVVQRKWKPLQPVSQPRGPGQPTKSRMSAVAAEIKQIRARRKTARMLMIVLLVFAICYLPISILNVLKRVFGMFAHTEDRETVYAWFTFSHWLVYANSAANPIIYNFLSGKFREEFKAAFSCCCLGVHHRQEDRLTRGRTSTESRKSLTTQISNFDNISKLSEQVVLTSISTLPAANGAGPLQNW
Experiment: Measurement of orexin type 2 receptor agonist activity (calcium fluorescence, Fluo-4, FDSS)
Format: cell-based
Conditions: 3 uM test compound; CHO cells expressing human OX2 receptor; DMSO = 0%, 10 nM orexin A (human) = 100%
In short: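 Agonist activity (%) was normalised to the response to 10 nM final human orexin A (100%) and to the DMSO vehicle (0%). The response was measured as the Fluo-4 calcium signal, read kinetically over 1 min 40 s after compound addition to Fluo-4/probenecid-loaded stable CHO-K1 clones expressing human OX2 (aa 1-444).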

Compound: CCS(=O)(=O)N[C@H]1C[C@H]2CN(c3cnc4cccc(-c5c(F)cccc5F)n34)C(=O)N2C1 [Example 182, N-{(6S,7aS)-2-[5-(2,6-difluorophenyl)imidazo[1,2-a]pyridin-3-yl]-3-oxohexahydro-1H-pyrrolo[1,2-c]imidazol-6-yl}ethanesulfonamide]
- OX2R agonist activity (3 uM, %): 84%

Compound: Cc1cc2onc(-n3cc4n(c3=O)C[C@@H](NS(C)(=O)=O)C4(F)F)c2c(-c2c(F)cc(F)cc2F)c1F [Example 184, N-{(6R)-7,7-difluoro-2-[5-fluoro-6-methyl-4-(2,4,6-trifluorophenyl)-1,2-benzoxazol-3-yl]-3-oxo-2,5,6,7-tetrahydro-3H-pyrrolo[1,2-c]imidazol-6-yl}methanesulfonamide]
- OX2R agonist activity (3 uM, %): 101%

Compound: CS(=O)(=O)N[C@@H]1Cn2c(cn(-c3noc4cc(CO)c(F)c(-c5c(F)cc(F)cc5F)c34)c2=O)C1(F)F [Example 185, N-{(6R)-7,7-difluoro-2-[5-fluoro-6-(hydroxymethyl)-4-(2,4,6-trifluorophenyl)-1,2-benzoxazol-3-yl]-3-oxo-2,5,6,7-tetrahydro-3H-pyrrolo[1,2-c]imidazol-6-yl}methanesulfonamide]
- OX2R agonist activity (3 uM, %): 104%

Compound: Cc1cc2onc(N3C[C@H]4N(C[C@@H](NS(C)(=O)=O)C4(F)F)C3=O)c2c(-c2c(F)cccc2F)c1F [Example 186, N-{(6R,7aR)-2-[4-(2,6-difluorophenyl)-5-fluoro-6-methyl-1,2-benzoxazol-3-yl]-7,7-difluoro-3-oxohexahydro-1H-pyrrolo[1,2-c]imidazol-6-yl}methanesulfonamide]
- OX2R agonist activity (3 uM, %): 101%

Compound: CCOc1cc(-c2c(F)cc(F)cc2F)c2c(-n3cc4n(c3=O)C[C@@H](NS(C)(=O)=O)C4(F)F)noc2c1 [Example 189, N-{(6R)-2-[6-ethoxy-4-(2,4,6-trifluorophenyl)-1,2-benzoxazol-3-yl]-7,7-difluoro-3-oxo-2,5,6,7-tetrahydro-3H-pyrrolo[1,2-c]imidazol-6-yl}methanesulfonamide]
- OX2R agonist activity (3 uM, %): 103%

Compound: CCS(=O)(=O)N[C@@H]1Cn2c(cn(-c3noc4nc(C)cc(-c5c(F)cc(F)cc5F)c34)c2=O)C1(F)F [Example 190, N-{(6R)-7,7-difluoro-2-[6-methyl-4-(2,4,6-trifluorophenyl)[1,2]oxazolo[5,4-b]pyridin-3-yl]-3-oxo-2,5,6,7-tetrahydro-3H-pyrrolo[1,2-c]imidazol-6-yl}ethanesulfonamide]
- OX2R agonist activity (3 uM, %): 96%

Compound: Cc1cc2onc(N3C[C@H]4N(C[C@@H](NS(C)(=O)=O)C4(F)F)C3=O)c2c(-c2c(F)cc(F)cc2F)n1 [Example 191, N-{(6R,7aR)-7,7-difluoro-2-[6-methyl-4-(2,4,6-trifluorophenyl)[1,2]oxazolo[4,5-c]pyridin-3-yl]-3-oxohexahydro-1H-pyrrolo[1,2-c]imidazol-6-yl}methanesulfonamide]
- OX2R agonist activity (3 uM, %): 98%

Compound: CS(=O)(=O)N[C@@H]1CN2C(=O)N(c3noc4cc(OC(F)F)cc(-c5c(F)cc(F)cc5F)c34)C[C@@H]2C1(F)F [Example 193, N-{(6R,7aR)-2-[6-(difluoromethoxy)-4-(2,4,6-trifluorophenyl)-1,2-benzoxazol-3-yl]-7,7-difluoro-3-oxohexahydro-1H-pyrrolo[1,2-c]imidazol-6-yl}methanesulfonamide]
- OX2R agonist activity (3 uM, %): 103%

Compound: CCOc1cc(-c2c(F)cccc2F)c2c(-n3cc4n(c3=O)C[C@@H](NS(C)(=O)=O)C4(F)F)noc2c1 [Example 194, N-{(6R)-2-[4-(2,6-difluorophenyl)-6-ethoxy-1,2-benzoxazol-3-yl]-7,7-difluoro-3-oxo-2,5,6,7-tetrahydro-3H-pyrrolo[1,2-c]imidazol-6-yl}methanesulfonamide]
- OX2R agonist activity (3 uM, %): 92%

Compound: CS(=O)(=O)N[C@H]1C[C@H]2CCN(c3noc4cccc(-c5c(F)cc(F)cc5F)c34)C(=O)N2C1 [Example 195]
- OX2R agonist activity (3 uM, %): 106%
